Test results taken from US7763234B2, “Pharmaceutical compounds” (GE Healthcare AS, priority 2005, dated 2010).
Numbered stars: 1 amine (or outer) side, 2 acyl side, 3 side chain; on linkers, the order of the positions; unused ones are H or OH. Square brackets hold non-standard residues; d marks the D form. Peptide text beside a SMILES is read from it. ξ: configuration not given here. X1 = C/C(=N/O)C(C)(C)NCCC(CCNC(C)(C)/C(C)=N\O)CCN(CC(=O)[*:2])[*:1]; Ile(3ξ) = CCC(C)[C@H](N)C(=O)O

Target: T1, ACE (Sigma A-6778) (Oryctolagus cuniculus, UniProt P12822)
T1 construct: purchased Sigma A-6778
T1 sequence (P12822 34-1310): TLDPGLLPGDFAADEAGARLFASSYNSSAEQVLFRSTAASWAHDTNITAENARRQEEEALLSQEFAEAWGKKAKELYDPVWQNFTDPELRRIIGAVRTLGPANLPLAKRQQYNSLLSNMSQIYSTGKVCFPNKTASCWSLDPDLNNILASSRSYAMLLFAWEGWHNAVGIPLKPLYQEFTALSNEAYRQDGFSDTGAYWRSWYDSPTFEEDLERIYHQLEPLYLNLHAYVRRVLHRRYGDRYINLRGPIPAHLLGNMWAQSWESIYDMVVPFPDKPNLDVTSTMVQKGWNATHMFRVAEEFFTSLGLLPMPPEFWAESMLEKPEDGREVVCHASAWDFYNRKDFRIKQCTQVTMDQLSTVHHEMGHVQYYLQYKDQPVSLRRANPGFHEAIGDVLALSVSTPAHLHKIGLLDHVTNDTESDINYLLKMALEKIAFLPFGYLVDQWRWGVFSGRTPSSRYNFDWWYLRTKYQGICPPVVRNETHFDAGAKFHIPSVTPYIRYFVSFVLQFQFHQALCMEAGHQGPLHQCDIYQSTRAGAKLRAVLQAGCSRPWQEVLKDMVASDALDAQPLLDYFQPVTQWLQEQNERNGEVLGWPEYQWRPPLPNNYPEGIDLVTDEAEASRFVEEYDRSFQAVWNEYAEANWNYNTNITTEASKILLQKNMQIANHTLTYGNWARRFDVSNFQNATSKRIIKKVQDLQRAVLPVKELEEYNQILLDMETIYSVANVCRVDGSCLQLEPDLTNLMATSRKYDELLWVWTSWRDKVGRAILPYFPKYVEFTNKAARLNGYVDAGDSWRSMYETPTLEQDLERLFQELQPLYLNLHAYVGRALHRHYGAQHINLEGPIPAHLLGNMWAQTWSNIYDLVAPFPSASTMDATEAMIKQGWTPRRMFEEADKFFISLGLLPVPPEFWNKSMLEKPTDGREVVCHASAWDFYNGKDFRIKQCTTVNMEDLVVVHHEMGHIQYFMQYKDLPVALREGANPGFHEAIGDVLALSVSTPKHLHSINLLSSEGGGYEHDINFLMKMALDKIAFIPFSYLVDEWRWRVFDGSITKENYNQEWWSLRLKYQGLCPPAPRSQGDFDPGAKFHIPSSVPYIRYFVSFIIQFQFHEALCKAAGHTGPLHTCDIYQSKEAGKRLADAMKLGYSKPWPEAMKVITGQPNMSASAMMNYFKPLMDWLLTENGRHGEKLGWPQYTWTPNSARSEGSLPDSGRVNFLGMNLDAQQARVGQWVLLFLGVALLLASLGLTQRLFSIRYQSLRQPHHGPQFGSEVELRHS
Assay: ACE cleavage of Ang I peptide analogues (LC-MS)
Type: biochemical
Settings: after 120 min; 0.1 mg peptide in 100 μL ACE stock solution (0.34 mg/mL, 200 mM HEPES pH 7.8), room temperature
Experimental: ACE stock solution was prepared: 0.34 mg ACE (Sigma A-6778) was dissolved in 1 mL 200 mM HEPES adjusted to pH 7.8 using KOH.
0.1 mg of the Ang I peptide analogue was dissolved in 100 μL of the ACE stock solution and the solution incubated at room temperature. Samples (10 μL) were withdrawn from the solution, diluted with H2O/0.1% TFA (400 μL) and analysed by LC-MS.

percent cleavage/time | Compound
40%/120 min | CCC(C)[C@H](NC(=O)[C@H](Cc1ccc(O)cc1)NC(=O)[C@@H](NC(=O)[C@H](CCCNC(=N)N)NC(=O)CNCCC(CCNC(C)(C)/C(C)=N\O)CCNC(C)(C)/C(C)=N\O)C(C)C)C(=O)N[C@@H](Cc1cnc[nH]1)C(=O)N1CCC[C@H]1C(=O)N[C@@H](Cc1ccccc1)C(=O)N[C@@H](Cc1cnc[nH]1)C(=O)N[C@@H](CC(C)C)C(=O)O (stereo partly drawn) [cPn216-Gly-Arg-Val-Tyr-Ile-His-Pro-Phe-His-Leu-OH] (H-[X1]RVY[Ile(3ξ)]HPFHL-OH)
40%/120 min | Ang I: the decapeptide Ang I, formed from angiotensinogen by renin and converted by ACE to the active Ang II
